Patent publication US20240389599A1, “Antimicrobial Material Comprising a Tetraalkylphosphonium Ionic Liquid and Metal Nanoparticles” (University of Windsor, priority 2023, published 2024)

Tests used:
Format in all cases: cell-based
E. coli = test: resazurin-based MIC/MBC screen of the TAPILs
From the text: (§1) The MIC evaluation of the three TAPILs is shown with E. coli (a) and S. aureus (b) as the microorganism under study, using resazurin as an indicator of bacterial viability. The numbers on the right correspond to the TAPILs—i.e. “1” stands for TAPIL-1. The MIC and MBC values (c) are shown for the three TAPILs deployed against E. coli and S. aureus as representative microorganisms.
(§2) The three TAPILs were screened against E. coli and S. aureus according to standard procedures (FIG. 2). The bacteria were selected as they are the representative strains (gram negative and positive, respectively) used for European Union regulations in the evaluation of disinfectants. A standard resazurin-based assay was employed: A blue well indicates non-viable bacteria, while a pink one indicates bacterial viability. The MIC and the MBC values are summarized.

S. aureus = test: resazurin-based MIC/MBC screen of the TAPILs; settings: resazurin assay
From the text: as §1, §2

[1] = MIC/MBC of TAPIL-2 monitored upon ambient storage open to the atmosphere; settings: 3 weeks ambient storage open to the atmosphere
From the text: The presence of one longer alkyl chain on the central phosphorus is believed to be preferred for anti-microbial activity since symmetrical TAPILs with four identical alkyl substituents around the phosphorus atom are likely to interact less strongly with the cell membrane to induce cell death. The MIC/MBC values of TAPIL-2 were monitored over a period of 3 weeks upon ambient storage open to the atmosphere. No change in its antimicrobial activity was detected.

Structure (SMILES): CCCCCCCCCCCCCC[P+](CCCCCC)(CCCCCC)CCCCCC.O=S(=O)([N-]S(=O)(=O)C(F)(F)F)C(F)(F)F [TAPIL-3]
- concentration up to which no anti-bacterial effects are shown (MIC/MBC) (E. coli; resazurin assay): > 2000 µg/mL
- concentration up to which no anti-bacterial effects are shown (MIC/MBC) (S. aureus): > 2000 µg/mL

Structure (SMILES): CCCCCCCC[P+](CCCCCC)(CCCCCC)CCCCCC.[Cl-] [TAPIL-2]
- Minimum Bactericidal Concentration (MBC) (E. coli): < 65 µg/mL
- change in antimicrobial activity (MIC/MBC values) [1]: No change

Structure (SMILES): CCCCCCCCCCCCCC[P+](CCCCCC)(CCCCCC)CCCCCC.[Cl-] [TAPIL-1]
- antibacterial properties (in words) (E. coli; resazurin assay): bacteriostatic properties at intermediate concentrations
- antibacterial properties (in words) (S. aureus): bacteriostatic properties at intermediate concentrations
